Values of other authors, collected in patent US20060246530A1, “Method and reagent for the specifically identifying and quantifying one or more proteins in a sample” (priority 2002, published 2006).

tested on: mice; conditions: Intravenous LD50-rate in mice

Structure (SMILES) | LD50 [mmol/kg]
O=C(O)CN1CCNCCN(CC(=O)O)CCN(CC(=O)O)CC1 [DO3A] | 7 to 9
O=C(O)CN1CCN(CC(=O)O)CCN(CC(=O)O)CCN(CC(=O)O)CC1 [DOTA, 1,4,7,10-tetraazacyclododecane-1,4,7,10-tetraacetic acid] | 11
O=C(O)CN(CCN(CC(=O)O)CC(=O)O)CCN(CC(=O)O)CC(=O)O [DTPA] | 5.6
CC(O)CN1CCN(CC(=O)O)CCN(CC(=O)O)CCN(CC(=O)O)CC1 (centres unmarked) [HP-DO3A] | 12

tested on: not given; conditions: selectivity factor

Structure (SMILES) | Log Ksel
O=C(O)CN1CCNCCN(CC(=O)O)CCN(CC(=O)O)CC1 [DO3A] | 4.13
O=C(O)CN1CCN(CC(=O)O)CCN(CC(=O)O)CCN(CC(=O)O)CC1 [DOTA, 1,4,7,10-tetraazacyclododecane-1,4,7,10-tetraacetic acid] | 8.3
O=C(O)CN(CCN(CC(=O)O)CC(=O)O)CCN(CC(=O)O)CC(=O)O [DTPA] | 7.04
O=C(O)CN(CCN(CC(=O)O)CC(=O)O)CC(=O)O [EDTA] | 4.23
CC(O)CN1CCN(CC(=O)O)CCN(CC(=O)O)CCN(CC(=O)O)CC1 (centres unmarked) [HP-DO3A] | 6.95

tested on: not given; conditions: stability constant

Structure (SMILES) | Log KCal
O=C(O)CN1CCNCCN(CC(=O)O)CCN(CC(=O)O)CC1 [DO3A] | 11.74
O=C(O)CN1CCN(CC(=O)O)CCN(CC(=O)O)CCN(CC(=O)O)CC1 [DOTA, 1,4,7,10-tetraazacyclododecane-1,4,7,10-tetraacetic acid] | 17.23
O=C(O)CN(CCN(CC(=O)O)CC(=O)O)CCN(CC(=O)O)CC(=O)O [DTPA] | 10.75
O=C(O)CN(CCN(CC(=O)O)CC(=O)O)CC(=O)O [EDTA] | 10.61
CC(O)CN1CCN(CC(=O)O)CCN(CC(=O)O)CCN(CC(=O)O)CC1 (centres unmarked) [HP-DO3A] | 14.83

tested on: not given; conditions: stability constant, Cu

Structure (SMILES) | Log KCuL
O=C(O)CN1CCNCCN(CC(=O)O)CCN(CC(=O)O)CC1 [DO3A] | 22.87
O=C(O)CN1CCN(CC(=O)O)CCN(CC(=O)O)CCN(CC(=O)O)CC1 [DOTA, 1,4,7,10-tetraazacyclododecane-1,4,7,10-tetraacetic acid] | 22.63
O=C(O)CN(CCN(CC(=O)O)CC(=O)O)CCN(CC(=O)O)CC(=O)O [DTPA] | 21.38
O=C(O)CN(CCN(CC(=O)O)CC(=O)O)CC(=O)O [EDTA] | 18.78
CC(O)CN1CCN(CC(=O)O)CCN(CC(=O)O)CCN(CC(=O)O)CC1 (centres unmarked) [HP-DO3A] | 22.84

tested on: not given; conditions: stability constant, Zn

Structure (SMILES) | Log KZnL
O=C(O)CN1CCNCCN(CC(=O)O)CCN(CC(=O)O)CC1 [DO3A] | 19.26
O=C(O)CN1CCN(CC(=O)O)CCN(CC(=O)O)CCN(CC(=O)O)CC1 [DOTA, 1,4,7,10-tetraazacyclododecane-1,4,7,10-tetraacetic acid] | 21.05
O=C(O)CN(CCN(CC(=O)O)CC(=O)O)CCN(CC(=O)O)CC(=O)O [DTPA] | 18.29
O=C(O)CN(CCN(CC(=O)O)CC(=O)O)CC(=O)O [EDTA] | 16.5
CC(O)CN1CCN(CC(=O)O)CCN(CC(=O)O)CCN(CC(=O)O)CC1 (centres unmarked) [HP-DO3A] | 19.37

tested on: not given; conditions: stability constant, Gd

Structure (SMILES) | Log KGdL
O=C(O)CN1CCNCCN(CC(=O)O)CCN(CC(=O)O)CC1 [DO3A] | 21.0
O=C(O)CN1CCN(CC(=O)O)CCN(CC(=O)O)CCN(CC(=O)O)CC1 [DOTA, 1,4,7,10-tetraazacyclododecane-1,4,7,10-tetraacetic acid] | 24.6
O=C(O)CN(CCN(CC(=O)O)CC(=O)O)CCN(CC(=O)O)CC(=O)O [DTPA] | 22.46
O=C(O)CN(CCN(CC(=O)O)CC(=O)O)CC(=O)O [EDTA] | 17.7
CC(O)CN1CCN(CC(=O)O)CCN(CC(=O)O)CCN(CC(=O)O)CC1 (centres unmarked) [HP-DO3A] | 23.8
